{"source": "patent US8828451B2", "about": "“Akt sensitization of cancer cells” (University of South Florida, priority 2006, dated 2014)", "key": {"[1]": {"tested_on": "A2780CP cells", "assay": "MTT cell survival assay, CDDP-resistant A2780CP cells", "conditions": "increasing amounts of CDDP alone, MTT 24 hr", "protocol": "(§1) CDDP-resistant ovarian cancer cell lines A2780CP and C-13 were treated with CDDP at indicated concentrations alone, or in combination with 10 μM API-2. Cell survival was determined 24 hr later by MTT assay.\nAPI-2 was further investigated to determine whether it can overcome CDDP resistance by blocking Akt signaling pathways. A2780CP and C-13 cells were treated with increasing amounts of CDDP alone or in combination with 10 μM API-2."}, "[2]": {"tested_on": "C-13 cells", "assay": "MTT cell survival assay, CDDP-resistant C-13 cells", "conditions": "C-13, increasing amounts of CDDP alone, MTT 24 hr", "protocol": "as §1\nA2780CP and C-13 cells were treated with increasing amounts of CDDP alone or in combination with 10 μM API-2."}, "[3]": {"tested_on": "MCF-7 human breast cancer", "assay": "Cell number growth over six days, MCF-7 cells", "format": "cell-based", "conditions": "MCF-7, 25 nM RAD001, 5 μM API-2 or combination"}, "[4]": {"tested_on": "Akt phosphorylation", "assay": "Western blot of MCF-7 lysates for phosphorylated Akt, S6, p70-S6K", "format": "cell-based, human", "experimental": "(A) OVCAR-3 human ovarian cancer and (B) MCF-7 human breast cancer cell lines were treated with mTOR inhibitors rapamycin (OVCAR-3 cells only) or RAD001 (MCF-7 cells only). Cell lysates were probed for phosphorylated and total Akt, and phosphorylated and total S6 at the indicated time points. […] Akt substrate FKHRL1, an apoptotic protein, was also detected.\n(A) OVCAR-3 and (B) MCF-7 cells were treated with rapamycin (OVCAR-3 cells only), RAD001 (MCF-7 cells only), API-2, or a combination of API-2 with either rapamycin or RAD001. Akt phosphorylation increased in both cell lines after either rapamycin or RAD001 treatment.\nResults of Western Blot for phosphorylated Akt (p-Akt) indicate C-13 and A2780CP cells had high levels of p-Akt. Further, cell survivability after chemotherapy appears directly connected to Akt up-regulation as C-13 had both the highest p-Akt and survivability. […] This caused an increase in p-Akt within 1 hour of treatment, confirming a relationship between p-Akt and cell survival after chemotherapy."}, "[5]": {"tested_on": "C-13 cells", "conditions": "C-13, drug individually or combination of both drugs"}, "[6]": {"tested_on": "A2780CP cells", "conditions": "drug individually or combination of both drugs"}}, "data": [{"molecule": "[Cl][Pt+2][Cl].[NH2-].[NH2-]", "note": "[CDDP, cis-Diammine-dicholoroplatinum(II)]", "values": [{"measurement": "effect on cell survival", "setting": "[1]", "result": "no significant effect on cell survival"}, {"measurement": "effect on cell survival", "setting": "[2]", "result": "no significant effect on cell survival"}]}, {"molecule": "CO[C@H]1C[C@@H]2CC[C@@H](C)[C@@](O)(O2)C(=O)C(=O)N2CCCC[C@H]2C(=O)O[C@H]([C@H](C)C[C@@H]2CC[C@@H](OCCO)[C@H](OC)C2)CC(=O)[C@H](C)/C=C(\\C)[C@@H](O)[C@@H](OC)C(=O)[C@H](C)C[C@H](C)/C=C/C=C/C=C/1C", "note": "[RAD001]", "values": [{"measurement": "cell growth (cell numbers)", "setting": "[3]", "result": "inhibited cell growth"}, {"measurement": "Akt phosphorylation", "setting": "[4]; MCF-7", "result": "increased with longer exposure time"}, {"measurement": "phosphorylated S6", "setting": "[4]; MCF-7, indicated time points", "result": "decreased with exposure"}]}, {"molecule": "CC(=O)O[C@H]1C(=O)[C@@]2(C)[C@H]([C@H](OC(=O)c3ccccc3)[C@]3(O)C[C@H](OC(=O)[C@H](O)[C@@H](NC(=O)c4ccccc4)c4ccccc4)C(C)=C1C3(C)C)[C@]1(OC(C)=O)CO[C@@H]1C[C@@H]2O", "note": "[Taxol]", "values": [{"measurement": "apoptosis (Capase-Glo 3/7)", "setting": "[5]", "result": "increased apoptosis slightly"}, {"measurement": "apoptosis (Capase-Glo 3/7)", "setting": "[6]", "result": "increased apoptosis slightly"}]}]}
